PMC12137728, “The hydroxamate based HDAC inhibitor WMJ-J-09 induces colorectal cancer cell death by targeting tubulin and downregulating survivin” (Scientific Reports, 2025)

System: tubulin in HCT116 cells
Assay: Microtubule assembly / polymerized tubulin (immunofluorescence, western blot)
Type: cell-based, human
Conditions: HCT116 cell lysate
Description: Following the indicated treatments, a lysis buffer containing NP-40 (0.5%), Tris (10 mM) (pH 7.0), PMSF (2 mM), NaCl (140 mM), leupeptin (0.2 mM), and pepstatin A (0.05 mM) was utilized to lyse cells to extract proteins. SDS-PAGE was utilized to separate protein samples in equal quantities, then transferred to a nitrocellulose membrane (Pall Corporation, Washington, NY, U.S.A.). Following transfer and 1-h blocking by incubation with TBST buffer containing 5% non-fat, the proteins immobilized on the membranes undergo primary antibody hybridization. Secondary antibodies conjugated with horseradish peroxidase were used to detect target proteins. Immunoreactivity was detected using the Western chemiluminescent HRP substrate kit, as per the manufacturer’s recommendations. We used a densitometer integrated into a scientific imaging system (Biospectrum AC System, UVP) to obtain quantitative data. We examined tubulin assembly as previously described [8]. […] Subsequently, the cells were washed with PBS twice and fixed with 4% paraformaldehyde at room temperature for 15 min. Cells were permeabilized by incubation with PBS containing Triton X-100 (0.1%) for 30 min. […] The distribution of tubulin was analyzed using a confocal microscope (Zeiss, LSM 410). Green fluorescence represented β-tubulin, while blue fluorescence (derived from DAPI) corresponds to nuclei.

For `CC(=O)O[C@H]1C(=O)[C@@]2(C)[C@H]([C@H](OC(=O)c3ccccc3)[C@]3(O)C[C@H](OC(=O)[C@H](O)[C@@H](NC(=O)c4ccccc4)c4ccccc4)C(C)=C1C3(C)C)[C@]1(OC(C)=O)CO[C@@H]1C[C@@H]2O` [Paclitaxel, paclitaxel], the polymerized tubulin fraction was “increased the polymeric tubulin”.
